{"source": "ChEMBL document CHEMBL3758081", "about": "“Synthesis and biological evaluation of new naphthalene substituted thiosemicarbazone derivatives as potent antifungal and anticancer agents” (Eur J Med Chem, 2016)", "key": {"Salmonella typhimurium [1]": {"tested_on": "Salmonella typhimurium", "assay": "Mutagenicity in Salmonella typhimurium TA98 at 0.625 mg/ml after 48 hrs by Ames MPF assay in absence of Sprague-Dawley rat liver S9 fraction", "assay_type": "toxicity, organism-based", "details": "salmonella enterica subsp. enterica serovar typhimurium"}, "[2]": {"assay": "Genotoxicity in Salmonella typhimurium TA1535/pSK1002 assessed as induction ratio at 2.5 mg/ml after 2 hrs by umuC assay in absence of Sprague-Dawley rat liver S9 fraction", "assay_type": "toxicity, organism-based", "details": "salmonella enterica subsp. enterica serovar typhimurium"}, "Salmonella typhimurium [3]": {"tested_on": "Salmonella typhimurium", "assay": "Mutagenicity in Salmonella typhimurium TA100 at 0.3125 mg/ml after 48 hrs by Ames MPF assay in absence of Sprague-Dawley rat liver S9 fraction", "assay_type": "toxicity, organism-based", "details": "salmonella enterica subsp. enterica serovar typhimurium"}, "Salmonella typhimurium [4]": {"tested_on": "Salmonella typhimurium", "assay": "Mutagenicity in Salmonella typhimurium TA100 at 5 mg/ml after 48 hrs by Ames MPF assay in presence of Sprague-Dawley rat liver S9 fraction", "assay_type": "toxicity, organism-based", "details": "salmonella enterica subsp. enterica serovar typhimurium, s9, 48 h"}, "Pichia kudriavzevii": {"tested_on": "Pichia kudriavzevii", "assay": "Antifungal activity against Candida krusei NRLL Y-7179 after 48 hrs by broth microdilution method", "assay_type": "functional", "details": "NRLL Y-7179, 48 h"}, "[5]": {"assay": "Genotoxicity in Salmonella typhimurium TA1535/pSK1002 assessed as induction ratio at 1.25 mg/ml after 2 hrs by umuC assay in presence of Sprague-Dawley rat liver S9 fraction", "assay_type": "toxicity, organism-based", "details": "salmonella enterica subsp. enterica serovar typhimurium"}, "[6]": {"assay": "Genotoxicity in Salmonella typhimurium TA1535/pSK1002 assessed as induction ratio at 1.25 mg/ml after 2 hrs by umuC assay in absence of Sprague-Dawley rat liver S9 fraction", "assay_type": "toxicity, organism-based", "details": "salmonella enterica subsp. enterica serovar typhimurium"}, "Aspergillus parasiticus": {"tested_on": "Aspergillus parasiticus", "assay": "Antifungal activity against Aspergillus parasiticus NRRL 465 after 72 hrs by broth microdilution method", "assay_type": "functional", "details": "NRRL 465, 72 h"}, "Aspergillus niger": {"tested_on": "Aspergillus niger", "assay": "Antifungal activity against Aspergillus niger ATCC-1094 after 72 hrs by broth microdilution method", "assay_type": "functional", "details": "ATCC-1094, 72 h"}, "Salmonella typhimurium [7]": {"tested_on": "Salmonella typhimurium", "assay": "Genotoxicity in Salmonella typhimurium TA1535/pSK1002 assessed as growth factor at 0.625 mg/ml after 2 hrs by umuC assay in absence of Sprague-Dawley rat liver S9 fraction", "assay_type": "toxicity, organism-based", "details": "salmonella enterica subsp. enterica serovar typhimurium"}, "Salmonella typhimurium [8]": {"tested_on": "Salmonella typhimurium", "assay": "Mutagenicity in Salmonella typhimurium TA100 at 0.156 mg/ml after 48 hrs by Ames MPF assay in presence of Sprague-Dawley rat liver S9 fraction", "assay_type": "toxicity, organism-based", "details": "salmonella enterica subsp. enterica serovar typhimurium, s9, 48 h"}, "Salmonella typhimurium [9]": {"tested_on": "Salmonella typhimurium", "assay": "Mutagenicity in Salmonella typhimurium TA98 at 1.25 mg/ml after 48 hrs by Ames MPF assay in presence of Sprague-Dawley rat liver S9 fraction", "assay_type": "toxicity, organism-based", "details": "salmonella enterica subsp. enterica serovar typhimurium, s9, 48 h"}, "Salmonella typhimurium [10]": {"tested_on": "Salmonella typhimurium", "assay": "Mutagenicity in Salmonella typhimurium TA98 at 5 mg/ml after 48 hrs by Ames MPF assay in presence of Sprague-Dawley rat liver S9 fraction", "assay_type": "toxicity, organism-based", "details": "salmonella enterica subsp. enterica serovar typhimurium, s9, 48 h"}, "Salmonella typhimurium [11]": {"tested_on": "Salmonella typhimurium", "assay": "Mutagenicity in Salmonella typhimurium TA98 at 2.5 mg/ml after 48 hrs by Ames MPF assay in presence of Sprague-Dawley rat liver S9 fraction", "assay_type": "toxicity, organism-based", "details": "salmonella enterica subsp. enterica serovar typhimurium, s9, 48 h"}, "[12]": {"assay": "Genotoxicity in Salmonella typhimurium TA1535/pSK1002 assessed as induction ratio at 2.5 mg/ml after 2 hrs by umuC assay in presence of Sprague-Dawley rat liver S9 fraction", "assay_type": "toxicity, organism-based", "details": "salmonella enterica subsp. enterica serovar typhimurium"}, "Salmonella typhimurium [13]": {"tested_on": "Salmonella typhimurium", "assay": "Genotoxicity in Salmonella typhimurium TA1535/pSK1002 assessed as growth factor at 2.5 mg/ml after 2 hrs by umuC assay in presence of Sprague-Dawley rat liver S9 fraction", "assay_type": "toxicity, organism-based", "details": "salmonella enterica subsp. enterica serovar typhimurium, s9, 2 h"}, "Salmonella typhimurium [14]": {"tested_on": "Salmonella typhimurium", "assay": "Genotoxicity in Salmonella typhimurium TA1535/pSK1002 assessed as growth factor at 1.25 mg/ml after 2 hrs by umuC assay in absence of Sprague-Dawley rat liver S9 fraction", "assay_type": "toxicity, organism-based", "details": "salmonella enterica subsp. enterica serovar typhimurium"}, "Candida tropicalis": {"tested_on": "Candida tropicalis", "assay": "Antifungal activity against Candida tropicalis NRLL Y-12968 after 48 hrs by broth microdilution method", "assay_type": "functional", "details": "NRLL Y-12968, 48 h"}, "Salmonella typhimurium [15]": {"tested_on": "Salmonella typhimurium", "assay": "Mutagenicity in Salmonella typhimurium TA100 at 5 mg/ml after 48 hrs by Ames MPF assay in absence of Sprague-Dawley rat liver S9 fraction", "assay_type": "toxicity, organism-based", "details": "salmonella enterica subsp. enterica serovar typhimurium"}, "Salmonella typhimurium [16]": {"tested_on": "Salmonella typhimurium", "assay": "Mutagenicity in Salmonella typhimurium TA100 at 1.25 mg/ml after 48 hrs by Ames MPF assay in absence of Sprague-Dawley rat liver S9 fraction", "assay_type": "toxicity, organism-based", "details": "salmonella enterica subsp. enterica serovar typhimurium"}, "[17]": {"assay": "Genotoxicity in Salmonella typhimurium TA1535/pSK1002 assessed as induction ratio at 5 mg/ml after 2 hrs by umuC assay in absence of Sprague-Dawley rat liver S9 fraction", "assay_type": "toxicity, organism-based", "details": "salmonella enterica subsp. enterica serovar typhimurium"}, "Salmonella typhimurium [18]": {"tested_on": "Salmonella typhimurium", "assay": "Genotoxicity in Salmonella typhimurium TA1535/pSK1002 assessed as growth factor at 1.25 mg/ml after 2 hrs by umuC assay in presence of Sprague-Dawley rat liver S9 fraction", "assay_type": "toxicity, organism-based", "details": "salmonella enterica subsp. enterica serovar typhimurium, s9, 2 h"}, "Salmonella typhimurium [19]": {"tested_on": "Salmonella typhimurium", "assay": "Genotoxicity in Salmonella typhimurium TA1535/pSK1002 assessed as growth factor at 5 mg/ml after 2 hrs by umuC assay in presence of Sprague-Dawley rat liver S9 fraction", "assay_type": "toxicity, organism-based", "details": "salmonella enterica subsp. enterica serovar typhimurium, s9, 2 h"}, "Salmonella typhimurium [20]": {"tested_on": "Salmonella typhimurium", "assay": "Mutagenicity in Salmonella typhimurium TA98 at 2.5 mg/ml after 48 hrs by Ames MPF assay in absence of Sprague-Dawley rat liver S9 fraction", "assay_type": "toxicity, organism-based", "details": "salmonella enterica subsp. enterica serovar typhimurium"}}, "data": [{"smiles": "Fc1cccc(/C=N/NC(=S)Nc2cccc3ccccc23)c1F", "values": [{"measurement": "fold change (FC)", "setting": "Salmonella typhimurium [1]", "result": 0}, {"measurement": "fold induction at 2 h, 2.5 mg/ml", "setting": "[2]", "result": 5.25}, {"measurement": "fold change (FC)", "setting": "Salmonella typhimurium [3]", "result": 0.36}, {"measurement": "fold change (FC)", "setting": "Salmonella typhimurium [4]", "result": 1.02}, {"measurement": "MIC", "setting": "Pichia kudriavzevii", "result": 250, "unit": "µg/mL"}, {"measurement": "fold induction at 2 h, 1.25 mg/ml", "setting": "[5]", "result": 1.42}, {"measurement": "fold induction at 2 h, 1.25 mg/ml", "setting": "[6]", "result": 1.63}, {"measurement": "MIC", "setting": "Aspergillus parasiticus", "result": 250, "unit": "µg/mL"}, {"measurement": "MIC", "setting": "Aspergillus niger", "result": 250, "unit": "µg/mL"}, {"measurement": "Activity", "setting": "Salmonella typhimurium [7]", "result": 0.137}, {"measurement": "fold change (FC)", "setting": "Salmonella typhimurium [8]", "result": 1.02}, {"measurement": "fold change (FC)", "setting": "Salmonella typhimurium [9]", "result": 0.84}, {"measurement": "fold change (FC)", "setting": "Salmonella typhimurium [10]", "result": 0.56}, {"measurement": "fold change (FC)", "setting": "Salmonella typhimurium [11]", "result": 0.47}, {"measurement": "fold induction at 2 h, 2.5 mg/ml", "setting": "[12]", "result": 3.99}, {"measurement": "Activity", "setting": "Salmonella typhimurium [13]", "result": 0.231}, {"measurement": "Activity", "setting": "Salmonella typhimurium [14]", "result": 0.131}, {"measurement": "MIC", "setting": "Candida tropicalis", "result": 250, "unit": "µg/mL"}, {"measurement": "fold change (FC)", "setting": "Salmonella typhimurium [15]", "result": 0.42}, {"measurement": "fold change (FC)", "setting": "Salmonella typhimurium [16]", "result": 0.42}, {"measurement": "fold induction at 2 h, 5 mg/ml", "setting": "[17]", "result": 1.55}, {"measurement": "Activity", "setting": "Salmonella typhimurium [18]", "result": 0.228}, {"measurement": "Activity", "setting": "Salmonella typhimurium [19]", "result": 0.24}, {"measurement": "fold change (FC)", "setting": "Salmonella typhimurium [20]", "result": 0}]}, {"smiles": "Fc1ccc(F)c(/C=N/NC(=S)Nc2cccc3ccccc23)c1", "values": [{"measurement": "fold change (FC)", "setting": "Salmonella typhimurium [1]", "result": 0}, {"measurement": "fold induction at 2 h, 2.5 mg/ml", "setting": "[2]", "result": 1.75}, {"measurement": "fold change (FC)", "setting": "Salmonella typhimurium [3]", "result": 0}, {"measurement": "fold change (FC)", "setting": "Salmonella typhimurium [4]", "result": 0.78}, {"measurement": "MIC", "setting": "Pichia kudriavzevii", "result": 250, "unit": "µg/mL"}, {"measurement": "fold induction at 2 h, 1.25 mg/ml", "setting": "[5]", "result": 2.81}, {"measurement": "fold induction at 2 h, 1.25 mg/ml", "setting": "[6]", "result": 1.79}, {"measurement": "MIC", "setting": "Aspergillus parasiticus", "result": 250, "unit": "µg/mL"}, {"measurement": "MIC", "setting": "Aspergillus niger", "result": 250, "unit": "µg/mL"}, {"measurement": "Activity", "setting": "Salmonella typhimurium [7]", "result": 0.14}, {"measurement": "fold change (FC)", "setting": "Salmonella typhimurium [8]", "result": 0.48}, {"measurement": "fold change (FC)", "setting": "Salmonella typhimurium [9]", "result": 0.65}, {"measurement": "fold change (FC)", "setting": "Salmonella typhimurium [10]", "result": 0.65}, {"measurement": "fold change (FC)", "setting": "Salmonella typhimurium [11]", "result": 0.56}, {"measurement": "fold induction at 2 h, 2.5 mg/ml", "setting": "[12]", "result": 1.39}, {"measurement": "Activity", "setting": "Salmonella typhimurium [13]", "result": 0.236}, {"measurement": "Activity", "setting": "Salmonella typhimurium [14]", "result": 0.115}, {"measurement": "MIC", "setting": "Candida tropicalis", "result": 250, "unit": "µg/mL"}, {"measurement": "fold change (FC)", "setting": "Salmonella typhimurium [15]", "result": 0.36}, {"measurement": "fold change (FC)", "setting": "Salmonella typhimurium [16]", "result": 0.36}, {"measurement": "fold induction at 2 h, 5 mg/ml", "setting": "[17]", "result": 1.63}, {"measurement": "Activity", "setting": "Salmonella typhimurium [18]", "result": 0.121}, {"measurement": "Activity", "setting": "Salmonella typhimurium [19]", "result": 0.228}, {"measurement": "fold change (FC)", "setting": "Salmonella typhimurium [20]", "result": 0}]}]}
